ChEMBL document CHEMBL1201862, “PubChem BioAssay data set” (2004)
Activity calls are given as the source filed them.

How the values were obtained:
[1] = Luminescence Cell-Based Dose Retest to Confirm Activators of 5'UTR Stem-Loop Driven Alpha-Synuclein mRNA Translation in H4 Neuroglioblastoma Cells. [Related pubchem assays (depositor defined):AID1813, AID1829]; assay type: functional
[2] = Luminescence Cell-Based Dose Confirmation HTS to Identify Inhibitors of 5'UTR Stem-Loop Driven Alpha-Synuclein mRNA Translation in H4 Neuroglioblastoma Cells. [Related pubchem assays: 1827 (Project Summary), 1813 (Primary HTS)]; assay type: functional
[3] = Luminescence Cell-Based Dose Response HTS to Identify Inhibitors of 5'UTR Stem-Loop Driven Prion Protein mRNA Translation in H4 Neuroglioblastoma Cells. [Related pubchem assays: 1827 (Project Summary), 1813 (Primary HTS)]; assay type: functional
[4] = inhibitors of SNCA 5'UTR-driven translation, confirmation, luminescence, H4 neuroglioblastoma cells, dose confirmation (AID 2454); assay type: functional, cell-based;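 note: H4 neuroglioblastoma cells carrying an alpha-synuclein 5'UTR luciferase reporter; potency for inhibition of the luciferase signal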
[5] = Luminescence Cell-Based Dose Response HTS to Identify Activators of 5'UTR Stem-Loop Driven Prion Protein mRNA Translation in H4-C Neuroglioblastoma Cells. [Related pubchem assays: 1829 (Project Summary), 1814 (Primary HTS)]; assay type: functional
[6] = Luminescence Cell-Based Dose Response HTS to Identify Inhibitors of Luciferase Translation or Activity in H4-C Neuroglioblastoma Cells. [Related pubchem assays: 1813 (Primary HTS), 1827 (Project Summary)]; assay type: functional
[7] = luciferase reporter signal reduction – luminescence, H4-C neuroglioblastoma cells, dose response (AID 2458); assay type: functional, cell-based;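 note: H4 neuroglioblastoma cells stably carrying a luciferase reporter gene fusion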
[8] = inhibitors of SNCA 5'UTR-driven reporter translation, confirmation, H4 neuroglioma cells, luminescence (AID 1988); assay type: functional, cell-based
[9] = Luminescence Cell-Based Dose Response HTS to Identify Activators of Luciferase Translation or Activity in H4-C Neuroglioblastoma Cells. [Related pubchem assays: 1829 (Project Summary), 1814 (Primary HTS)]; assay type: functional
J774.A1 = test: Confirmation of image-based Screening Assay for Inhibitors of Phagocytosis. [Related pubchem assays (depositor defined):AID1029, AID1643]; assay type: functional, cell-based; conditions: Mus musculus
cells = assay type: functional, cell-based
[10] = inhibitors of firefly luciferase expression or activity, dose response, H4 neuroglioma cells, luminescence (AID 1990); assay type: functional, cell-based
[11] = Luminescence Cell-Based Dose HTS Response to Identify Inhibitors of 5'UTR Stem-Loop Driven Prion Protein mRNA Translation in H4-C Neuroglioblastoma Cells. [Related pubchem assays (depositor defined):AID1814, AID1827]; assay type: functional
[12] = target: T1, Replicative DNA helicase DnaB (Mycobacterium tuberculosis, UniProt P9WMR3); test: DnaB intein splicing inhibitors, dose response, biochemical, cell-free fluorescence (AID 449749); assay type: functional
T1 sequence (P9WMR3 whole entry): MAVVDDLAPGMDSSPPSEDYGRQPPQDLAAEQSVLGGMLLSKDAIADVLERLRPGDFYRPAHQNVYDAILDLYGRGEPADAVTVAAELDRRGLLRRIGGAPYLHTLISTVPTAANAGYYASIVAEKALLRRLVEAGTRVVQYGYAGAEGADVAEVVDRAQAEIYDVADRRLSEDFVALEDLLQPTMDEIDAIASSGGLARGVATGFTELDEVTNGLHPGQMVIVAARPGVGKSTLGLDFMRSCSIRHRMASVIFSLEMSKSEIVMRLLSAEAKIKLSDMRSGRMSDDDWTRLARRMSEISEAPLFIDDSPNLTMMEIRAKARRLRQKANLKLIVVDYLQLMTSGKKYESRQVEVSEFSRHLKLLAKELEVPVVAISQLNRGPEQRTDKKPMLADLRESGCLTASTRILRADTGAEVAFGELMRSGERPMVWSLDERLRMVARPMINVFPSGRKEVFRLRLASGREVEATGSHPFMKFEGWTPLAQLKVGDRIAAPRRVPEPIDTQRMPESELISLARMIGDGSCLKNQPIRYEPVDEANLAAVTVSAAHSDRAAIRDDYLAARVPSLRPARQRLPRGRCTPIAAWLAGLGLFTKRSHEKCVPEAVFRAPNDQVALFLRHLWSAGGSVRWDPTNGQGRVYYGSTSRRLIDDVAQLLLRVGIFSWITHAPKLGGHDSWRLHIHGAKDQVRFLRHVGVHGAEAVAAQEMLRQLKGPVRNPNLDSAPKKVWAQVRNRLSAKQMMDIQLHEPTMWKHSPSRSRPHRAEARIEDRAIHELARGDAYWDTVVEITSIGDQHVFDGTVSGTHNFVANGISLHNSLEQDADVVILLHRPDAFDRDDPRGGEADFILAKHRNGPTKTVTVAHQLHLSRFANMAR

Coagulation factor XII = target: T2, Coagulation factor XII (Homo sapiens, UniProt P00748); test: Factor XIIa Dose Response Confirmation from Single Well HTS. [Related pubchem assays (depositor defined):AID701]; assay type: functional
T2 sequence (P00748 whole entry): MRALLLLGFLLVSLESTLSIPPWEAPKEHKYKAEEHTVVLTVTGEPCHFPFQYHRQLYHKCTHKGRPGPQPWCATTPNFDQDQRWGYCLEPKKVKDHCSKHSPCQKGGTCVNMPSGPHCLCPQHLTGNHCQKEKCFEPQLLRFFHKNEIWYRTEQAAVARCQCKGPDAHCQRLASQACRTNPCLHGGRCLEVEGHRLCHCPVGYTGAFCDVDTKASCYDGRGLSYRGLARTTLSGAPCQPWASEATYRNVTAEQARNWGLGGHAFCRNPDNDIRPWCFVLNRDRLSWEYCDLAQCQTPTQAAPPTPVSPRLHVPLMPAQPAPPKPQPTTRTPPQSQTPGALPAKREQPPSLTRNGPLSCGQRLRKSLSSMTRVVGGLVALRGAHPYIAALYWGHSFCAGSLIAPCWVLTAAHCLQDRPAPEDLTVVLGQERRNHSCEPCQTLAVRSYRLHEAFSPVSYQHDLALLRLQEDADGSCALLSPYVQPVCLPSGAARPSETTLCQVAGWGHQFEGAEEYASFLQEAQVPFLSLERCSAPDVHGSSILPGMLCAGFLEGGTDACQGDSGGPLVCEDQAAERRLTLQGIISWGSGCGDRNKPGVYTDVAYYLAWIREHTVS

Protein RecA = target: T3, Protein RecA (Mycobacterium tuberculosis, UniProt P9WHJ3); test: Fluorescence Cell-Free Homogeneous Dose Retest to Identify Inhibitors of RecA-Intein Splicing Activity. [Related pubchem assays (depositor defined):AID2097, AID2223, AID489010, AID492950]; assay type: functional
T3 sequence (P9WHJ3 whole entry): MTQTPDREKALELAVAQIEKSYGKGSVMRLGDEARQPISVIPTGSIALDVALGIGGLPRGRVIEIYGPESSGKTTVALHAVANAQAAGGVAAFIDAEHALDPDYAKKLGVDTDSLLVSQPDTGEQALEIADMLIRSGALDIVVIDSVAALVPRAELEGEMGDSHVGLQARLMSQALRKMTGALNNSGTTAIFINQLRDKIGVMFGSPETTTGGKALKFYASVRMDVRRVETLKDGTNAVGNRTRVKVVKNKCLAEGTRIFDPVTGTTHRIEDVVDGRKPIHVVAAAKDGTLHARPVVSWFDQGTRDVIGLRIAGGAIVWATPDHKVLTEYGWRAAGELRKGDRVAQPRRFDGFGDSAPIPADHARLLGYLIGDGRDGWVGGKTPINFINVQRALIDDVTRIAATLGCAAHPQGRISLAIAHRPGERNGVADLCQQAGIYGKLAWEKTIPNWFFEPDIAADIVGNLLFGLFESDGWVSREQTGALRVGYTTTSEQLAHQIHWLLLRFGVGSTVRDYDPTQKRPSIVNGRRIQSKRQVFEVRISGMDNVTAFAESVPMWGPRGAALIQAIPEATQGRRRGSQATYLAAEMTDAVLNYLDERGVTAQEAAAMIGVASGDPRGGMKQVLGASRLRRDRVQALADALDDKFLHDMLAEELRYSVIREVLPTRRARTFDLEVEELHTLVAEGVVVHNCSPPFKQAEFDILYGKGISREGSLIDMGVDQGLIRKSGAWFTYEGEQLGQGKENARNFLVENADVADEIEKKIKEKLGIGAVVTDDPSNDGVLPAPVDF

[13] = target: T4, G-protein coupled receptor 35 (Homo sapiens, UniProt Q9HC97); test: SAR analysis of Agonists of the GPR35 Receptor using an Image-Based Assay - Set 4. [Related pubchem assays (depositor defined):AID2013, AID2026]; assay type: functional
[14] = target: G-protein coupled receptor 55 (Homo sapiens, UniProt Q9Y2T6); test: SAR Analysis of Selective Antagonists of GPR55 using an Image-Based Assay - Set 4. [Related pubchem assays (depositor defined):AID2013, AID2026]; assay type: functional;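 note: antagonism of response to 5 µM lysophosphatidylinositol agonist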
Cannabinoid receptor 1 [15] = target: T5, Cannabinoid receptor 1 (Homo sapiens, UniProt P21554); test: SAR analysis of antagonists of the Cannabinoid Receptor 1 using an Image-Based Assay - Set 4. [Related pubchem assays (depositor defined):AID2013, AID2026]; assay type: functional
Cannabinoid receptor 1 [16] = target: T5, Cannabinoid receptor 1; test: SAR analysis of agonists of the Cannabinoid Receptor 1 using an Image-Based Assay - Set 4. [Related pubchem assays (depositor defined):AID2013, AID2026]; assay type: functional
Cannabinoid receptor 2 [17] = target: T6, Cannabinoid receptor 2 (Homo sapiens, UniProt P34972); test: SAR analysis of antagonists of the Cannabinoid Receptor 2 using an Image-Based Assay - Set 3. [Related pubchem assays (depositor defined):AID2013, AID2026]; assay type: functional
[18] = target: T4, G-protein coupled receptor 35; test: SAR analysis of Antagonists of the GPR35 Receptor using an Image-Based Assay - Set 6. [Related pubchem assays (depositor defined):AID2013, AID2026]; assay type: functional
Cannabinoid receptor 2 [19] = target: T6, Cannabinoid receptor 2; test: SAR analysis of agonists of the Cannabinoid Receptor 2 using an Image-Based Assay - Set 3. [Related pubchem assays (depositor defined):AID2013, AID2026]; assay type: functional
[20] = target: Sphingosine 1-phosphate receptor 4 (Homo sapiens, UniProt O95977); test: Late-stage fluorescence dose response cell-based assay to identify agonists of the Sphingosine 1-Phosphate Receptor 4 (S1P4): purchased compounds EC50. [Related pubchem assays (depositor defined):AID1509, AID1523, AID1563, AID1686, AID1701, AID1801]; assay type: functional
[21] = target: T7, Peroxisome proliferator-activated receptor gamma (Homo sapiens, UniProt P37231); test: PPARg ligand-binding domain binders, dose response, PPARg partial agonist project, biochemical, TR-FRET, LanthaScreen (AID 504446)
[22] = target: T7, Peroxisome proliferator-activated receptor gamma; test: PPARg partial agonists, dose response, cell-based, luminescence, assay provider (AID 504447); assay type: functional
[23] = target: Peroxisome proliferator-activated receptor alpha (Homo sapiens, UniProt Q07869); test: Late stage assay provider counterscreen for partial agonists of the peroxisome proliferator-activated receptor gamma (PPARg): Luminescence-based cell-based dose response assay for partial agonists of the peroxisome proliferator-activated receptor alpha (PPARA). [Related pubchem assays (depositor defined):AID1051, AID1300, AID1319, AID1679, AID1808, AID504446, AID504447, AID504452, AID504453, AID631]; assay type: functional
[24] = target: Voltage-dependent T-type calcium channel subunit alpha-1H (Homo sapiens, UniProt O95180); test: Cav3.2 T-type channel inhibitors, synthesized analogs, SAR follow-up, cell-based, synthetic library set 2, HEK293 HH8, Fluo-4 (AID 493023); assay type: functional
[25] = target: Delta-type opioid receptor (Homo sapiens, UniProt P41143); test: SAR Analysis of Antagonists of the DOR Receptor using an Image-Based Assay - Set 2. [Related pubchem assays (depositor defined):AID1777, AID1785, AID1786, AID1966, AID2133, AID2136, AID2284, AID2285, AID2357]; assay type: functional
[26] = target: T8, Kappa-type opioid receptor (Homo sapiens, UniProt P41145); test: SAR analysis of small molecule agonists of the kappa opioid receptor via a luminescent beta-arrestin assay - Set 2. [Related pubchem assays (depositor defined):AID1777, AID1785, AID1786, AID1966, AID2133, AID2136, AID2284, AID449737]; assay type: functional
[27] = target: T8, Kappa-type opioid receptor; test: SAR analysis of Antagonists of the Kappa Opioid Receptor (KOR) using an Image-Based Assay - Set 2. [Related pubchem assays (depositor defined):AID1777, AID1785, AID1786, AID1966, AID2133, AID2136, AID2284, AID2285, AID2348]; assay type: functional

T7 sequence (P37231 whole entry, the tested form may be a part): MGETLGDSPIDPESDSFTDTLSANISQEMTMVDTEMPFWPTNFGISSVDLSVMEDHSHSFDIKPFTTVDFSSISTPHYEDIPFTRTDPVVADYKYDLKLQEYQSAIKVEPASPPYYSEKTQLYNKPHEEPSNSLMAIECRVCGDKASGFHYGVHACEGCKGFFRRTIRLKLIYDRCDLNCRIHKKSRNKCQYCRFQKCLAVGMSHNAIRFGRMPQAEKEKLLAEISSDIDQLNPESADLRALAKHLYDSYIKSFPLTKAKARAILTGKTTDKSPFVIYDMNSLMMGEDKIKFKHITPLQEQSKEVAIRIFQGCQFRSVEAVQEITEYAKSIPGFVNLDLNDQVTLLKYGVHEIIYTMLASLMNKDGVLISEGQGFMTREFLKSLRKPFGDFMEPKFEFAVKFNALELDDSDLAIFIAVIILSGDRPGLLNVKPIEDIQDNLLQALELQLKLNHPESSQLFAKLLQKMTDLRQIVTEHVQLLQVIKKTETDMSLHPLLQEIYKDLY
T8 sequence (P41145 whole entry): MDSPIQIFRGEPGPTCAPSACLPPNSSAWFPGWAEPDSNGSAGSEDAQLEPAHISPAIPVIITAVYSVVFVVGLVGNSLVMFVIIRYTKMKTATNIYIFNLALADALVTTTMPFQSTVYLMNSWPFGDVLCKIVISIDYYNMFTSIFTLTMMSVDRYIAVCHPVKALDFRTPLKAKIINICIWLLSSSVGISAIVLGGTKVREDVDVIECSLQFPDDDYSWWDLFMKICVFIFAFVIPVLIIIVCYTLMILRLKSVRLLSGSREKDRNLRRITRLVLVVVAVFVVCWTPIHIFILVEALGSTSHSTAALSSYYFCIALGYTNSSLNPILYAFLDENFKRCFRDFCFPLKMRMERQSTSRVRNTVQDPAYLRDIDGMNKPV
T6 sequence (P34972 whole entry): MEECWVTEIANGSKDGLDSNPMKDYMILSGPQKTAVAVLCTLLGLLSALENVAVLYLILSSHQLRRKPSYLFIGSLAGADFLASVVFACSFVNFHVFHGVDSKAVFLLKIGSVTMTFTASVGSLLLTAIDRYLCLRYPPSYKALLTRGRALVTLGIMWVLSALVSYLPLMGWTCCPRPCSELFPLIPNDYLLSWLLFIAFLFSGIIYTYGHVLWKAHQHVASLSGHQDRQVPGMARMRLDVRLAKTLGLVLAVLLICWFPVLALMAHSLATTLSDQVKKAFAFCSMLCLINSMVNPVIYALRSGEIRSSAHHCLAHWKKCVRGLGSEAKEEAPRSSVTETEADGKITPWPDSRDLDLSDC
T4 sequence (Q9HC97 whole entry): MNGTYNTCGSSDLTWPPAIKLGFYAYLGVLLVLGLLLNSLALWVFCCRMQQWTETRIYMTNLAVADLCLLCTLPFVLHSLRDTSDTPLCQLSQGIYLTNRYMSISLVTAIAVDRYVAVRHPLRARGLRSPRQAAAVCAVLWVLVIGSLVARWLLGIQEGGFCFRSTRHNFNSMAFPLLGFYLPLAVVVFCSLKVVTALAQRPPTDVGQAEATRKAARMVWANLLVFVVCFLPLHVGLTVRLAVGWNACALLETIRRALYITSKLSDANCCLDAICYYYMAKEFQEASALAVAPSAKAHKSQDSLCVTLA
T5 sequence (P21554 whole entry): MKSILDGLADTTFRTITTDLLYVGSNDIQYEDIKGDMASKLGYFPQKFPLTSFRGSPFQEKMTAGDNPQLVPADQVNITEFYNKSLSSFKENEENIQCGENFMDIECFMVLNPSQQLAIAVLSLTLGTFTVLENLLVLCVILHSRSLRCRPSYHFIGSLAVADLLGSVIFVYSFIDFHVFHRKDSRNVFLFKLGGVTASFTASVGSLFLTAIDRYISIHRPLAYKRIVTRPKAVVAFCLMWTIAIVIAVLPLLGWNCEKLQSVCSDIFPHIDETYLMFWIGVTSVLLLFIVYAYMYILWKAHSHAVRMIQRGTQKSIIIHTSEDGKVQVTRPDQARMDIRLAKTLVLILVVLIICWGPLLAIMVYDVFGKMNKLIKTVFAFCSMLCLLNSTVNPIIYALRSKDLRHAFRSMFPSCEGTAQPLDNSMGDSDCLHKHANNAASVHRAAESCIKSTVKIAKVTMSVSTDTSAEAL
Voltage-dependent T-type calcium channel subunit alpha-1H, sequence (O95180 whole entry): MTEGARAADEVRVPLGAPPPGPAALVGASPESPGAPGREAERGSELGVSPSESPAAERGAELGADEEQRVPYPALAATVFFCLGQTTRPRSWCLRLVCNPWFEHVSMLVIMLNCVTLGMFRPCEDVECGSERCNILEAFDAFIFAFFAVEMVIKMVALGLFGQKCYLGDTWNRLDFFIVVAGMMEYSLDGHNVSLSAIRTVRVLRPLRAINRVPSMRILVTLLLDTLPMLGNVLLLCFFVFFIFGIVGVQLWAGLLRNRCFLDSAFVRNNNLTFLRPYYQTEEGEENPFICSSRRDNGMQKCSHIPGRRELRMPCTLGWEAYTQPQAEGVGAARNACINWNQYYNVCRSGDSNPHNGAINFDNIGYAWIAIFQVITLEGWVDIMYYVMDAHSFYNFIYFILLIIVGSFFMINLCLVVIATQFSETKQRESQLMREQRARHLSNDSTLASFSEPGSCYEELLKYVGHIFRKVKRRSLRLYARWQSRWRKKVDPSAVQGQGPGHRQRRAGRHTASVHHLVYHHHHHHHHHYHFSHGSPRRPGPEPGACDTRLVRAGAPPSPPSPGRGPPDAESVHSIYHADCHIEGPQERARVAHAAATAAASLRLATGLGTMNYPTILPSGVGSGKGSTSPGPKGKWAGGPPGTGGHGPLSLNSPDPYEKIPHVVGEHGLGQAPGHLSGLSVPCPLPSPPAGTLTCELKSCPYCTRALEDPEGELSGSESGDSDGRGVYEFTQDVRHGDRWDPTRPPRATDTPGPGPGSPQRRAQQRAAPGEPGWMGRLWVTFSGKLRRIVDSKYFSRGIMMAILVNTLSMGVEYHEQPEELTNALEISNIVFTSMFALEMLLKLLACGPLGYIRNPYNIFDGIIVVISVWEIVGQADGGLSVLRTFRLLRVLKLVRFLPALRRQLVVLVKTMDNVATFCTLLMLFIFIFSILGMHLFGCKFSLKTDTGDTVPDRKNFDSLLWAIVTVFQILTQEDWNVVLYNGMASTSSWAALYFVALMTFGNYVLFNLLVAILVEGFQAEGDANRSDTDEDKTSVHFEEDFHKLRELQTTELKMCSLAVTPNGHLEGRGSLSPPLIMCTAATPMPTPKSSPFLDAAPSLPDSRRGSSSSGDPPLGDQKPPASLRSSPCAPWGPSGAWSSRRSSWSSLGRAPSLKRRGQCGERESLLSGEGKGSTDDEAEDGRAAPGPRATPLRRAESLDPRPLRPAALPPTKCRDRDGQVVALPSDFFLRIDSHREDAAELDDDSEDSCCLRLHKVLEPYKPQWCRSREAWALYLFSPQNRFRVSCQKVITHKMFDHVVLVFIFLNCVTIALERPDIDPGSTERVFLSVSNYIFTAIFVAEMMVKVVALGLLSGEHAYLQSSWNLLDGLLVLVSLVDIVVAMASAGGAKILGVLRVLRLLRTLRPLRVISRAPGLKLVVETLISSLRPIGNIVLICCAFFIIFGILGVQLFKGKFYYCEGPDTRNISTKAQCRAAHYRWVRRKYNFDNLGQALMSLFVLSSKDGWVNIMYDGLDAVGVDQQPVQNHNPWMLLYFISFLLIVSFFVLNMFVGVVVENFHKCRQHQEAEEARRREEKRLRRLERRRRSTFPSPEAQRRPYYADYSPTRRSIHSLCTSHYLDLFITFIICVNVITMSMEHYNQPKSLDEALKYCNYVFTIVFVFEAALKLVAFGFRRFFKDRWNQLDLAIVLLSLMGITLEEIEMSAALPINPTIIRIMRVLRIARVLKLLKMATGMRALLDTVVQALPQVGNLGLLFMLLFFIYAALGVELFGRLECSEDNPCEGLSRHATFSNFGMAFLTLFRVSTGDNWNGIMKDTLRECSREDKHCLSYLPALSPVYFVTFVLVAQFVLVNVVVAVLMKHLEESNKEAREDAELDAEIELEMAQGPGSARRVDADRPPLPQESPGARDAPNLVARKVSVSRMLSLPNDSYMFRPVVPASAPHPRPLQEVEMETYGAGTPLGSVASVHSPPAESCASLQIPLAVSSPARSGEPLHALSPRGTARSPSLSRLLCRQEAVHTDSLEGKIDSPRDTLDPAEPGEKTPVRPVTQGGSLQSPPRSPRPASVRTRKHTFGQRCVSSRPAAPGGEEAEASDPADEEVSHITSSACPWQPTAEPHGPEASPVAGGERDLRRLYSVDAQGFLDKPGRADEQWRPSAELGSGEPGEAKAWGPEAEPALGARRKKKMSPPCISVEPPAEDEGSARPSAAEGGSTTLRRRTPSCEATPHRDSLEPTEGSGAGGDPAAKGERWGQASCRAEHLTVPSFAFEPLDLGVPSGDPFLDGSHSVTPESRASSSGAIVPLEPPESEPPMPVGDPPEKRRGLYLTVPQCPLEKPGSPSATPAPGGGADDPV
Sphingosine 1-phosphate receptor 4, sequence (O95977 whole entry, the tested form may be a part): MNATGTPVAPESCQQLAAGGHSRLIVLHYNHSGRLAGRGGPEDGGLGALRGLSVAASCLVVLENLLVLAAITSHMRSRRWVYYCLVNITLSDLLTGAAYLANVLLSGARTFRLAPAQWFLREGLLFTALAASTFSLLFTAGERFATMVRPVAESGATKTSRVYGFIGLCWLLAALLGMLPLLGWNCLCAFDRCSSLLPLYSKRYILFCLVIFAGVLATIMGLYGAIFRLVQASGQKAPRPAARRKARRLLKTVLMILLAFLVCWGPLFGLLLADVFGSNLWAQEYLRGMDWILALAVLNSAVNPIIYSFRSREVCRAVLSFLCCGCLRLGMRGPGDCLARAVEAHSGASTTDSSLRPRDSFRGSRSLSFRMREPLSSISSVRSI

## N#CC1=C(N)Oc2c(ccc3ccccc23)C1c1cccs1 (stereo unspecified)
[1]
  EC50: 9.28 µM (inconclusive)
[2]
  EC50: 9.28 µM (active)
[3]
  EC50: 9.47 µM (active)
[4]
  EC50: 0.739 µM (active)
[5]
  EC50: 0.162 µM (inconclusive)
[6]
  EC50: 0.246 µM (active)
[7]
  EC50: 0.474 µM (active)
[8]
  EC50: < 0.1 µM (active)
[9]
  EC50: 0.246 µM (inconclusive)
J774.A1
  IC50: 1.86 µM (active)
cells
  EC50: 0.885 µM (active)
[10]
  EC50: 5.47 µM (inconclusive)
[11]
  EC50: 0.162 µM (active)

## O=C(Oc1cccc(-n2cnnn2)c1)c1ccco1
[12]
  AC50: 23.8 µM (active)
Coagulation factor XII
  IC50: 12.4 µM (active)
Protein RecA
  EC50: 15.1 µM (active)

## CCOc1ccc(-c2n[nH]c(C)c2-c2ccccc2)c(O)c1
[13]
  EC50: > 32 µM (inactive)
[14]
  IC50: 18.4 µM (inactive)
Cannabinoid receptor 1 [15]
  IC50: 4.14 µM (active)
Cannabinoid receptor 1 [16]
  EC50: > 32 µM (inactive)
Cannabinoid receptor 2 [17]
  IC50: 23.8 µM (inactive)
[18]
  IC50: > 32 µM (inactive)
Cannabinoid receptor 2 [19]
  EC50: > 32 µM (inactive)

## Cc1ccc(OCC(=O)NC(C)c2ccc(Cl)cc2Cl)c([N+](=O)[O-])n1 (stereo unspecified)
[20]
  EC50: > 50 µM (inactive)

## O=C(O)CCN1C(=O)/C(=C/c2cccc(OCc3ccc(F)cc3)c2)SC1=S
[21]
  IC50: 1.9 µM (active)
[22]
  EC50: 3 µM (active)
[23]
  EC50: 0.243 µM (active)

## CC(C)(C)CCN1CCC[C@@H](NC(=O)COc2ccc(F)cc2Cl)C1
[24]
  EC50: 10 µM (active)

## CC[C@](C)(C(=O)NC1CCCCC1)N(Cc1ccco1)C(=O)c1ccccn1
[25]
  IC50: > 32 µM (inactive)
[26]
  EC50: 0.151 µM (active)
[27]
  IC50: > 32 µM (inactive)
